pIC50: −log10 of the molar value.

Series [1] concerns NCI in vitro tumor cell line panel (approximately 60 cell lines). Nature of the series: National Cancer Institute's in vitro tumor cell line panel. In kind it is cell-based, human. An excerpt: Discalamide A was additionally evaluated for its anti-proliferative effects utilizing the National Cancer Institute's in vitro tumor cell line panel. The results of these analyses are shown in the mean graphs presented as FIG. 3. The data are presented using known and accepted measurements of “lethal concentration-50” (LC50) where 50% of the cells are killed.

The subject of series [2] is A549 human lung adenocarcinoma cell line. The experiment in a line: A549 cytotoxicity (antiproliferative) MTT assay. In kind it is cell-based. The settings on record: A549 human lung adenocarcinoma cells, 72 hours exposure. As to the method: (§1) Compounds were analyzed as to their effects on proliferation of A549 human lung adenocarcinoma and P388 murine leukemia cell lines. P388 cells were obtained from Dr. R. Camalier, National Cancer Institute, Bethesda, Md., and A549 cells were obtained from American Type Culture Collection, Rockville, Md. All cell lines were maintained in Roswell Park Memorial Institute (RPMI) medium 1640 supplemented with 100 U/ml penicillin, […], 60 […], 18 mM HEPES, 0.05 mg/ml gentamicin (Life Technologies, Gaithersburg, Md.) and 10% fetal bovine serum and cultured in plastic tissue culture flasks at 37° C. in humidified air containing 5% CO2. Stock cultures of P388 cells were subcultured 1:20 in fresh tissue culture medium (TCM) every 2 to 3 days. Stock cultures of A549 cells were subcultured 1:10 every 3 to 4 days.
(§2) To assess the antiproliferative effects of agents against P388 cells, 200 μl cultures (96-well tissue culture plates, Nunc, Denmark) were established at 2×10^4 cells/ml in TCM or TCM containing the test agent at 0.03-5.0 μg/ml. After 48 hours exposure, P388 cells were enumerated using 3-[4,5-dimethylthiazol-2-yl]-2,5-diphenyltetrazolium bromide (MTT) as described in the literature (Alley, M. D. et al. [1988] Cancer Res. 48:589). A549 cells were enumerated in the same manner using 200 μl cultures established at 3×10^4 cells/ml and exposing the cultures to the test agents for 72 hours. The results were expressed as percent inhibition compared to the negative (no drug) control. Positive drug controls of varying dilutions of 5-fluorouracil and adriamycin (Sigma Chemical Co., St. Louis, Mo.) were included to monitor drug sensitivity of the cell line.
(§3) To quantitate the effects of compounds on cell proliferation and resulting IC50 values, 75 μl of warm growth media containing 5 mg/ml MTT is added to each well, cultures returned to the incubator, and left undisturbed for 3 hours. To spectrophotometrically quantitate formation of reduced formazan, plates are centrifuged (500×g, 10 minutes), culture fluids removed by aspiration, and 200 μl of acidified isopropanol (2 ml concentrated HC1/liter isopropanol) added per well. The absorbance of the resulting solutions is measured in a plate reader (Tecan Spectra SLT; TECAN U.S., Research Triangle Park, NC) at 570 nm with a 650 nm reference filter. The absorbance of tests wells is divided by the absorbance of drug-free wells, and the concentration of agent that results in 50% of the absorbance of untreated cultures (IC50) is determined by linear regression of logit-transformed data (Finney, D. J. [1978] Statistical Method in Biological Assay, third ed., pp.316-348, Charles Griffin Co., London). A linear relationship between tumor cell number and formazan production has been routinely observed over the range of cell densities observed in these experiments. The two standard drug controls (indicated above) are included in each assay as a check to monitor the drug sensitivity of each of the cell lines and IC50 values are determined for each drug-cell combination.

Series [3] has as its system P388 murine leukemia cell line. Nature of the series: P388 cytotoxicity (antiproliferative) MTT assay. The settings on record: P388 murine leukemia cells, 48 hours exposure. In kind it is cell-based. As to the method:
as §1, §2, §3

Turning to `C=C1C[C@](OC)([C@H](O)C(=O)N[C@H]2OCO[C@H]3[C@@H]2O[C@H](CC(/C=C/C/C=C/C=C/C(=O)O)OC)C(C)(C)[C@@H]3OC)O[C@H](C)[C@@H]1C` (some centres unmarked) [2GP111 (Discalamide A), Discalamide A], the “effectiveness according to LC50 measurements for the NCI cell lines” value in series [1] (HL-60(TB), K562, COLO 205, HCC-2998, SF-295, SNB-19, LOX IMVI, MALME-3M, M14, SK-MEL-2, SK-MEL-28, SK-MEL-5, UACC-257, CAKI-1, HS578T, MDA-MB-231/ATCC) is on record as “particularly effective”. Also, the “selective cytotoxicity by LC50 mean graphs (number of cell lines)” value in series [1] (of approximately 60 cell lines tested, bars to the right of the midline, FIG. 3) was 16 cell lines. Further, the values for the pIC50 in series [2] and in series [3] were 8.82 and 10.00, respectively.
Take `C=C/C=C\[C@H](C)[C@H](OC(N)=O)[C@@H](C)[C@H](O)[C@@H](C)C/C(C)=C\[C@H](C)[C@@H](O)[C@@H](C)/C=C\[C@@H](O)C[C@@H]1OC(=O)[C@H](C)[C@@H](O)[C@H]1C` [Discodermolide]: the pIC50 was 7.60 in series [2] and 7.26 in series [3] (Mus musculus).
Turning to `COc1cc2c(cc1O)CCN[C@]21CS[C@@H]2c3c(OC(C)=O)c(C)c4c(c3[C@H](COC1=O)N1[C@@H]2[C@H]2c3c(cc(C)c(OC)c3O)C[C@@H]([C@@H]1O)N2C)OCO4` [Ecteinascidin 743], the pIC50 in series [3] was 8.77.
For the molecule `C=C(CCC(C)C)COC(=O)[C@H](O)C/C=C\C[C@@H]1O[C@@H]2/C=C/C/C=C/C(C)=C\[C@H]3O[C@@H](C/C=C/C=C/C(=O)O[C@H](C2)[C@@]1(C)CO)C[C@H](O)[C@H]3C` [Lasonolide A], the pIC50 was 7.24 in series [2] and 8.55 in series [3].
The corresponding values for `C=C1C[C@](OC)([C@H](O)C(=O)N[C@H]2OCO[C@H]3[C@@H]2O[C@H](C[C@H](O)CO)C(C)(C)[C@@H]3OC)O[C@H](C)[C@@H]1C` [Mycalamide A] are 8.44 and 8.28.
On the same counts, the results for `C=C1C[C@](OC)([C@H](O)C(=O)N[C@H]2OCO[C@H]3[C@@H]2O[C@H](C[C@@H](CO)OC)C(C)(C)[C@@H]3OC)O[C@H](C)[C@@H]1C` [Mycalamide B] are 9.22 and 8.89.
With `C=C1C[C@](OC)([C@H](O)C(=O)N[C@H]2OCO[C@H]3[C@@H]2O[C@H](C[C@H](O)CCC/C=C/C=C/C=C/C(=O)N[C@@H](CCCNC(=N)N)C(=O)O)C(C)(C)[C@@H]3OC)O[C@H](C)[C@@H]1C` [Onnamide A], the pIC50 is 6.77 in series [2] and 8.62 in series [3].
The corresponding values for “Discalamide A methylester [2GP313 (Discalamide A-methylester)]” are 9.10 and 9.52.
The corresponding values for Discalamide B [2GP311 (Discalamide B)] are 8.49 and 8.14.
As for Ecteinascidin 729, the pIC50 in series [3] was 8.92.

The record behind these values is US6476065B2, “Discalamide compounds and their use as anti-proliferative agents” (priority 2000, dated 2002).
